Experimental data published in patent US7056734B1, “Differentiation of non-insulin producing cells into insulin producing cells by GLP-1 or exendin-4 and uses thereof” (The United States of America as represented by the …, priority 1998, dated 2006).

Tests used:
Wistar rats = assay: Acute intravenous GLP-1 bolus, plasma insulin response in young and old rats; format: in vivo, rat; details: 0.2 nmol/kg iv bolus; for maximal insulin response: 2 min after completion of the bolus
Description: Protocols. To insure that old animals were capable of responding to GLP-1, we carried out an acute experiment with an intravenous bolus of GLP-1. Six old (22 months) and 6 young (3 months) Wistar rats were fasted overnight. Following anesthesia with 50 mg/kg pentobarbital, a catheter was placed in the femoral artery for blood sampling, and a bolus of GLP-1 (0.2 nmol/kg) was given into the saphenous vein over 30 sec. Blood (taken at 2, 4, 7, and 10 min) was collected for insulin determination.

[1] = Description: The rats were implanted with an Alzet micro-osmotic pump (Alza Corp., Palo Alto, Calif.) in the interscapular region for 48 hrs. […] Control animals received normal saline in their pumps and received their infusion for the same length of time.
Assays. Plasma glucose was measured by the glucose oxidase method (Egan et al., 1991). […] The amount of cellular proteins was measured using the Bradford method (Bio-Rad Richmond, Calif.) using bovine γ-globulin as standard.

[2] = system: Hexokinase I, II and III mRNA; assay: Slot-blot quantitation of hexokinase I, II and III mRNA in pancreata and islets; format: in vivo, rat; details: whole pancreata and islets
Description: Whole pancreata of rats that had been subjected to 48 hrs infusion with GLP-1 or saline were used to extract total RNA. After an overnight fast, animals were sacrificed, pancreata were removed and frozen in liquid nitrogen as quickly as possible. RNA was extracted by homogenization in guanidinium isothiocyanate, followed by ultracentrifugation on a 5.7 M cesium chloride cushion (Glisin et al., 1974; Chigwin et al., 1979). Poly-A RNA was then prepared from total RNA by affinity chromatography using oligo (dT) columns (Biolabs INC, Beverly, Mass.). RNA was quantified by spectrophotometric analysis at […]. Slot-blot analysis using poly-A RNA was used for quantitation of mRNA levels of glucokinase, which is the main glucose sensor of the beta cell (Matschinsky, 1990), the three hexokinases, GLUT2, the major glucose transporter of the beta cell (Mueckler, 1990), and insulin. Four micrograms of poly-A RNA were diluted in 50 μl TE buffer (Tris-HCL 10 mM, EDTA 1 mM, pH 7.4), 20 μl of 37% formaldehyde and 20 μl of 10× SSC. Samples were incubated at 60° C. for 15 min and then diluted with 1 ml of ice-cold 10× SSC (1×SCC=0.15 M NaCl+0.015 sodium citrate). […]
RNA isolation and quantitation of mRNAs in islets of Langerhans. […] Slot-Blot analysis was carried out to quantitate mRNA levels of the hexokinases, GLUT2, and insulin.

pancreata = assay: Pancreas weight after continuous GLP-1 infusion; format: in vivo, rat
Excerpt: The pancreata of treated animals weighed 26% more than the pancreata of control animals.

AR42J cells = assay: Amylase content and CCK response of AR42J cells after 72 h treatment; format: cell-based, rat
Description: Amylase Assay. For amylase determination, cells were washed free of medium with 2 ml PBS. Incubation was then carried out in DMEM containing 15 mM HEPES, 0.2% BSA and 0.01% soybean trypsin inhibitor. CCK (1 nM) was added for 50 min at 37° C. The incubation medium was then immediately removed for amylase determination and the cells were again washed in 2 ml ice-cold PBS. Lysate buffer containing (in mM) 130 Tris-HCl, 10 CaCl2, 75 NaCl, and 0.2% Triton X-100 (pH 8.0) was added to the cells and the lysates were then collected for total amylase (Ceska et al., 1969). The released amylase was expressed as the percentage of the total amylase in the cells.

diabetic mice = assay: Five-day daily ip exendin-4 in 14 weeks old diabetic mice; format: in vivo, mouse; details: 24 nmol/kg ip daily
Description: In another group of eight diabetic mice 14 weeks old we gave 24 nmol/kg exendin-4 ip daily and NaCl ip daily for five days to four each of the group.
Assays. Plasma glucose was measured by the glucose oxidase method (Wang et al., 1997). Insulin was measured by RIA as previously described (See Example 1). Hb A1c was assayed using a BIO-RAD (Herculas Calif.) DiaSTAT machine which uses low pressure cation exchange chromatography in conjunction with gradient elution to separate hemoglobin subtypes and variants from hemolyzed blood. The separated hemoglobin fractions were monitored by means of absorption of light at 415 nm.

[3] = system: beta cells of the pancreas; details: Goke et al., 1993; cited from earlier work

Row | Molecule | maximal insulin response (Wistar rats; old (22 month) fasted rats) [pmol/L] | maximal insulin response (Wistar rats; young (3 month) fasted rats) [pmol/1] | time at which insulin levels had returned to baseline (Wistar rats; young and old rats) [min] | plasma GLP-1 before commencement of glucose tolerance testing ([1]; 120 min after removal of pumps) | plasma GLP-1 levels relative to fasting levels ([1]; during infusion, fasting levels 10–20 pmol/l) | Hexokinase I, II and III mRNA levels [2] | pancreas weight increase over control animals (pancreata) [%] | total amylase content (AR42J cells; GLP-1 added together with dexamethasone, 72 h) [U/1] | acute amylase response to CCK (1 nM) (AR42J cells; cells pretreated with GLP-1 for 72 h) | blood sugars after five days (diabetic mice; NaCl-treated 640±37) [mg/dL] | insulin levels after five days (diabetic mice; NaCl-treated 1,072±54) | lowest concentrations increasing cAMP and insulin secretion [3]
1 | CC[C@H](C)[C@H](NC(=O)[C@H](Cc1ccccc1)NC(=O)[C@H](CCC(=O)O)NC(=O)[C@H](CCCCN)NC(=O)[C@H](C)NC(=O)[C@H](C)NC(=O)[C@H](CCC(N)=O)NC(=O)CNC(=O)[C@H](CCC(=O)O)NC(=O)[C@H](CC(C)C)NC(=O)[C@H](Cc1ccc(O)cc1)NC(=O)[C@H](CO)NC(=O)[C@H](CO)NC(=O)[C@@H](NC(=O)[C@H](CC(=O)O)NC(=O)[C@H](CO)NC(=O)[C@@H](NC(=O)[C@H](Cc1ccccc1)NC(=O)[C@@H](NC(=O)CNC(=O)[C@H](CCC(=O)O)NC(=O)[C@H](C)NC(=O)[C@@H](N)Cc1c[nH]cn1)[C@@H](C)O)[C@@H](C)O)C(C)C)C(=O)N[C@@H](C)C(=O)N[C@@H](Cc1c[nH]c2ccccc12)C(=O)N[C@@H](CC(C)C)C(=O)N[C@H](C(=O)N[C@@H](CCCCN)C(=O)NCC(=O)N[C@@H](CCCNC(=N)N)C(N)=O)C(C)C [GLP-1] | 347.7 ± 25.7 | 373.3±43.7 | 10 | below the level of detectability | approximately 6 times | did not appear to be altered | 26 | 7.76 | decreased |  |  | 
2 | exendin-4 |  |  |  |  |  |  |  |  |  | 355 ± 21 | 6,904±705 pmol/l | 10^−10 M
